Assay results: the supplement of paper PMC10307832

How the values were obtained:
Assay in all cases: relative viability (nuclei count vs DMSO), 5 days (fraction); higher = more cells survive
AZ3146 + Palbociclib = compound: CN1CCC(CC1)OC2=CC(=C(C=C2)NC3=NC=C4C(=N3)N(C(=O)N4C)C5CCCC5)OC [AZ3146] + CC(=O)c1c(C)c2cnc(Nc3ccc(N4CCNCC4)cn3)nc2n(C2CCCC2)c1=O [Palbociclib] (partner 0.5 µM)
Procedure, shortened: (§1)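 Relative viability was taken as the ratio of nuclei in treated wells to nuclei in vehicle wells. Lung cancer cell lines in 1536-well plates received compounds by pin tool one day after seeding, either one drug alone or a fixed anchor-drug dose plus five library-drug doses (not always all listed) in √10 steps. Nuclei were counted on 4× images after 5 days of treatment, and values are medians of duplicate plates.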

AZ3146 + Olaparib = compound: CN1CCC(CC1)OC2=CC(=C(C=C2)NC3=NC=C4C(=N3)N(C(=O)N4C)C5CCCC5)OC [AZ3146] + O=C(c1cc(Cc2n[nH]c(=O)c3ccccc23)ccc1F)N1CCN(C(=O)C2CC2)CC1 [Olaparib] (partner 8 µM)
Procedure, shortened: as §1

AZ3146 + Pictilisib = compound: CN1CCC(CC1)OC2=CC(=C(C=C2)NC3=NC=C4C(=N3)N(C(=O)N4C)C5CCCC5)OC [AZ3146] + CS(=O)(=O)N1CCN(Cc2cc3nc(-c4cccc5[nH]ncc45)nc(N4CCOCC4)c3s2)CC1 [Pictilisib] (partner 1 µM)
Procedure, shortened: as §1

GSK-J4 + Palbociclib = compound: CCOC(=O)CCNc1cc(N2CCc3ccccc3CC2)nc(-c2ccccn2)n1 [GSK-J4] + CC(=O)c1c(C)c2cnc(Nc3ccc(N4CCNCC4)cn3)nc2n(C2CCCC2)c1=O [Palbociclib] (partner 0.5 µM)
Procedure, shortened: as §1

Cell Line | relative viability (AZ3146 + Palbociclib; first compound 0.08 µM) | relative viability (AZ3146 + Palbociclib; first compound 0.253 µM) | relative viability (AZ3146 + Palbociclib; first compound 0.8 µM) | relative viability (AZ3146 + Palbociclib; first compound 2.53 µM) | relative viability (AZ3146 + Palbociclib; first compound 8 µM) | relative viability (AZ3146 + Olaparib; first compound 0.08 µM) | relative viability (AZ3146 + Olaparib; first compound 0.253 µM) | relative viability (AZ3146 + Olaparib; first compound 0.8 µM) | relative viability (AZ3146 + Olaparib; first compound 2.53 µM) | relative viability (AZ3146 + Olaparib; first compound 8 µM) | relative viability (AZ3146 + Pictilisib; first compound 0.08 µM) | relative viability (AZ3146 + Pictilisib; first compound 0.253 µM) | relative viability (AZ3146 + Pictilisib; first compound 0.8 µM) | relative viability (AZ3146 + Pictilisib; first compound 2.53 µM) | relative viability (AZ3146 + Pictilisib; first compound 8 µM) | relative viability (GSK-J4 + Palbociclib; first compound 0.5 µM) | relative viability (GSK-J4 + Palbociclib; first compound 5 µM) | relative viability (GSK-J4 + Palbociclib; first compound 15.81 µM) | relative viability (GSK-J4 + Palbociclib; first compound 50 µM) | relative viability (GSK-J4 + Palbociclib; first compound 1.581 µM)
ChaGo-K-1 | 0.935 | 0.927 | 0.894 | 0.896 | 0.862 | 0.352 | 0.436 | 0.361 | 0.421 | 0.357 | 0.746 | 0.668 | 0.645 | 0.824 | 0.596 | 0.934 | 0.967 | 0.889 | 0.845 | 
EBC-1 |  |  |  |  |  | 0.699 | 0.71 | 0.671 | 0.634 | 0.397 | 0.366 | 0.412 | 0.351 | 0.388 | 0.244 |  |  |  |  | 
EKVX | 0.406 | 0.373 | 0.284 | 0.431 | 0.368 | 0.798 | 0.828 | 0.811 | 1.07 | 0.798 | 0.417 | 0.433 | 0.259 | 0.407 | 0.545 | 0.352 | 0.365 | 0.352 | 0.344 | 
EMC-BAC-2 | 0.466 | 0.519 | 0.555 | 0.53 | 0.514 | 0.407 | 0.522 | 0.5 | 0.531 | 0.432 | 0.524 | 0.56 | 0.564 | 0.607 | 0.597 | 0.505 |  | 0.465 | 0.471 | 0.474
EPLC-272H | 0.327 | 0.342 | 0.309 | 0.338 | 0.27 | 0.892 | 0.841 | 0.878 | 0.914 | 0.643 | 0.274 | 0.322 | 0.3 | 0.263 | 0.265 | 0.342 | 0.371 | 0.309 | 0.33 | 0.327
H3255 | 0.331 | 0.294 | 0.311 | 0.344 | 0.332 | 0.498 | 0.526 | 0.605 | 0.564 | 0.564 | 0.514 | 0.49 | 0.466 | 0.507 | 0.518 | 0.325 | 0.257 | 0.279 | 0.284 | 0.299
HARA | 0.274 | 0.239 | 0.266 | 0.241 | 0.243 | 0.618 | 0.926 | 0.818 | 0.924 | 0.841 | 0.264 | 0.537 | 0.387 | 0.594 | 0.244 | 0.242 | 0.23 | 0.234 | 0.3 | 0.247
HCC-15 | 0.757 | 0.668 | 0.727 | 0.738 | 0.68 | 0.618 | 0.737 | 0.726 | 0.725 | 0.648 | 0.721 | 0.773 | 0.765 | 0.737 | 0.728 | 0.712 | 0.701 | 0.694 | 0.488 | 0.528
HCC-44 | 0.966 | 0.977 | 1.05 | 0.959 | 0.935 | 0.996 | 0.991 | 1.06 | 0.964 | 0.942 | 0.543 | 0.528 | 0.815 | 0.618 | 0.472 | 0.933 | 0.989 | 0.979 | 1.03 | 0.916
